According to PMC6327040, “A novel scaffold for EGFR inhibition: Introducing N-(3-(3-phenylureido)quinoxalin-6-yl) acrylamide derivatives” (Scientific Reports, 2019):

Experiments:
EGFRwt = EGFRwt (Homo sapiens, UniProt P00533); test: HTRF KinEASE-TK biochemical assay (TR-FRET), EGFRwt
Description: (§1) An artificial substrate peptide (TK-substrate from Cisbio) was phosphorylated by EGFR. After completion of the reaction (reaction times: 25 min for wild-type, 15 min for L858R, 20 min for T790M/L858R), the reaction was stopped by addition of a buffer containing EDTA as well as, an anti-phosphotyrosine antibody labeled with europium cryptate and streptavidin labeled with the fluorophore XL665. FRET between europium cryptate and XL665 was measured after an additional hour of incubation to quantify the phosphorylation of the substrate peptide. […] Kinase and inhibitor were preincubated for 30 min (EGFR-wt) and 1 h (EGFR-L858R and EGFR-L858R/T790M) before the reaction was started by addition of ATP and substrate peptide. An EnVision multimode plate reader (Perkin Elmer) was used to measure the fluorescence of the samples at 620 nm (Eu-labeled antibody) and 665 nm (XL665 labeled streptavidin) 50 μs after excitation at 320 nm. The quotient of both intensities for reactions made with eight different inhibitor concentrations was then analyzed using the Quattro Software Suite for IC50-determination. Each reaction was performed in duplicate, and at least three independent determinations of each IC50 were made.

EGFRL858R = EGFRL858R (Homo sapiens, UniProt P00533, L858R); test: HTRF KinEASE-TK biochemical assay (TR-FRET), EGFR-L858R
Description: as §1

EGFRL858R/T790M = EGFRL858R/T790M (Homo sapiens, UniProt P00533, L858R/T790M); test: HTRF KinEASE-TK biochemical assay (TR-FRET), EGFR-L858R/T790M
Description: as §1

[1] = enzymatic in vitro determination

EGFRL858R/T790M, sequence (P00533 25-1210 T790M/L858R): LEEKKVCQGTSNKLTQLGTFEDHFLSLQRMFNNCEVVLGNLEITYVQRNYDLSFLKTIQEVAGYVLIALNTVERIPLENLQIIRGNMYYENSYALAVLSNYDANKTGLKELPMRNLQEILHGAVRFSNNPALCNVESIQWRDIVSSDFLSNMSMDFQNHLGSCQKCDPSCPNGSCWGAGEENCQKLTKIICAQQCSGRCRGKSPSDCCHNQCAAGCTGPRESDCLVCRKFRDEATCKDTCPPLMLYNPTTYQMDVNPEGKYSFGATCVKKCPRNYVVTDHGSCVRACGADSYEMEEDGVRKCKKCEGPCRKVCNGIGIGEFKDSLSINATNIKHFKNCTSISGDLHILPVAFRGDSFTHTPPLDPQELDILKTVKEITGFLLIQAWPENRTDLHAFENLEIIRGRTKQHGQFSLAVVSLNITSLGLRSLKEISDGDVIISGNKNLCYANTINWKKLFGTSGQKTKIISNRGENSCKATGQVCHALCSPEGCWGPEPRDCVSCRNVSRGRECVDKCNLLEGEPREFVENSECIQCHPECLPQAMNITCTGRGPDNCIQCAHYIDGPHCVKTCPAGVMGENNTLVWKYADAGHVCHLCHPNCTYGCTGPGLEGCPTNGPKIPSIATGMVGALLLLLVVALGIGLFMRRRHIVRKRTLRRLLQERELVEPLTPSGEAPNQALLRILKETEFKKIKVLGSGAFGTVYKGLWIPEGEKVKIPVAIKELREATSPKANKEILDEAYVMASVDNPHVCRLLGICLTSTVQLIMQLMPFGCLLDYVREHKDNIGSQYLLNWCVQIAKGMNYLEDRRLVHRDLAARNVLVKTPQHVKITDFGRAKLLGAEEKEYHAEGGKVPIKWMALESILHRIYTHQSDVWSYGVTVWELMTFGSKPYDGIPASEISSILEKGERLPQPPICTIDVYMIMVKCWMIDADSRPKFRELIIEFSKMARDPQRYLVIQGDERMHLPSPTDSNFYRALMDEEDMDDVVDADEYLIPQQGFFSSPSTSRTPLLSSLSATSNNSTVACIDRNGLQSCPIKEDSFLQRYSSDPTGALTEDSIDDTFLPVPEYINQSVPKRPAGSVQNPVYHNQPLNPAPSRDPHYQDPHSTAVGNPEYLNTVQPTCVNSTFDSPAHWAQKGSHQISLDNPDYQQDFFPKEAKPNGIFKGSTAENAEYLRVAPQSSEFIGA
EGFRwt, sequence (P00533 25-1210): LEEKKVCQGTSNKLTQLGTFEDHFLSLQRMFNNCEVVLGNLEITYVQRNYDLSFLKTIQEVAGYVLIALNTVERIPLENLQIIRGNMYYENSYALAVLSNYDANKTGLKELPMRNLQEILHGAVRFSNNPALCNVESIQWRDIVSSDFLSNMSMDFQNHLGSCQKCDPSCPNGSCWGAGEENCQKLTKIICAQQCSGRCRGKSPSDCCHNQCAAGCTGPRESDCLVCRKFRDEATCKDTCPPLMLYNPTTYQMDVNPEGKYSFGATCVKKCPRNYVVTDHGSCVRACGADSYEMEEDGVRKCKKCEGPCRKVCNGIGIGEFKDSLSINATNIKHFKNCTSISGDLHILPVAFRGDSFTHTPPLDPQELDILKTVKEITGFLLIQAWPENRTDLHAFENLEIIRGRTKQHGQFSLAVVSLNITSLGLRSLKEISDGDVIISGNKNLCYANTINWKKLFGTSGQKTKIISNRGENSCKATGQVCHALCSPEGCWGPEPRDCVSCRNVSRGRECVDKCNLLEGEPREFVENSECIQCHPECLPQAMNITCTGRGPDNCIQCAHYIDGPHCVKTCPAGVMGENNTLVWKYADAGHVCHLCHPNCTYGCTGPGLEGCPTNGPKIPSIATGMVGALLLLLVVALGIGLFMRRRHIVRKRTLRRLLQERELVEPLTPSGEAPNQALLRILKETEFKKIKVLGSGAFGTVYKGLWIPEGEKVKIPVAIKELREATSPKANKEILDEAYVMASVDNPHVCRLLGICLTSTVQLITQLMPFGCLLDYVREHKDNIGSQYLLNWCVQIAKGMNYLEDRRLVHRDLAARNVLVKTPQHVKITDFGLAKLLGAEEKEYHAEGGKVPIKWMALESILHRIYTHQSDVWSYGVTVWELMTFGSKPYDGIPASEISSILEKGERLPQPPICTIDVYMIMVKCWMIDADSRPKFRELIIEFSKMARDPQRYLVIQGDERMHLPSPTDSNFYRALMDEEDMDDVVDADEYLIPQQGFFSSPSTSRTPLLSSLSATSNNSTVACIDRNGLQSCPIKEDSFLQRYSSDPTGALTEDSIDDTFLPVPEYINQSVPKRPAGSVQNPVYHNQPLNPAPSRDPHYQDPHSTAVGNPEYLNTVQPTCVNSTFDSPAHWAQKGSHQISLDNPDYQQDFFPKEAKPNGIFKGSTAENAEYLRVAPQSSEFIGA
EGFRL858R, sequence (P00533 25-1210 L858R): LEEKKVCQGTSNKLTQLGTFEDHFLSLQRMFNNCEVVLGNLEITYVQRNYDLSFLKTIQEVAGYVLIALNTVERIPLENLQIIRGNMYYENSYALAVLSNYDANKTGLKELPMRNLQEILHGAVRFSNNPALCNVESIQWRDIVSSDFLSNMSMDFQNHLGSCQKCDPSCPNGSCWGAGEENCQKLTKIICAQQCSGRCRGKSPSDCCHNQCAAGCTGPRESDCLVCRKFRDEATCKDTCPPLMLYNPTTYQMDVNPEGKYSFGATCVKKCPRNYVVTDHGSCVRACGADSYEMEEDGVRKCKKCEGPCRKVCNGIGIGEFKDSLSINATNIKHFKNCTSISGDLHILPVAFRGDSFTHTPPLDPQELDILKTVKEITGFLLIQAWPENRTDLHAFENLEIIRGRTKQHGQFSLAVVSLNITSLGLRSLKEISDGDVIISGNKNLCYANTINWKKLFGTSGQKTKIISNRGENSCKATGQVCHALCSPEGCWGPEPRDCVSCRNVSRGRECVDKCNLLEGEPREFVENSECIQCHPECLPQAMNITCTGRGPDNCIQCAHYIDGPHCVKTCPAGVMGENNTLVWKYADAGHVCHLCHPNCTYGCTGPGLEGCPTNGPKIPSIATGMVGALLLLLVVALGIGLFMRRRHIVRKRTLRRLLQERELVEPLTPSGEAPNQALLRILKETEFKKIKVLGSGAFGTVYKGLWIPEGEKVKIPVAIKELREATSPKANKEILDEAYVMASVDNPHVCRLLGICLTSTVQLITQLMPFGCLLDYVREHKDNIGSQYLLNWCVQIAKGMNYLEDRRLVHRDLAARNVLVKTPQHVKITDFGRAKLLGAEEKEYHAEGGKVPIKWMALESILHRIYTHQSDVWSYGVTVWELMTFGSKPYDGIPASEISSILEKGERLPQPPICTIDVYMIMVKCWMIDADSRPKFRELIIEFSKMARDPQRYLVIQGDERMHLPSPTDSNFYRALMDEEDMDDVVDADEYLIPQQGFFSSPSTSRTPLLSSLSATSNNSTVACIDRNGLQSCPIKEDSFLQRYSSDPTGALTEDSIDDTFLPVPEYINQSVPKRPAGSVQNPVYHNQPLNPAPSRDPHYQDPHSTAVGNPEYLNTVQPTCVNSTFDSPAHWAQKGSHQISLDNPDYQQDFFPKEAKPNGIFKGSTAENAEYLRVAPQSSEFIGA

Structure (SMILES)	melting point	IC50 (EGFRwt)	IC50 (EGFRL858R)	IC50 (EGFRL858R/T790M)	inhibitory activity on EGFRwt (in words) (EGFRwt; [1])	inhibitory activity on EGFRL858R (in words) (EGFRL858R; [1])	inhibitory activity on EGFRL858R/T790M (in words) (EGFRL858R/T790M; [1])
N#CCC(=O)Nc1ccc2ncc(NC(=O)Nc3ccc(Cl)c(C(F)(F)F)c3)nc2c1 [Compound 7d, N-(3-(3-(4-chloro-3-(trifluoromethyl)phenyl)ureido)quinoxalin-6-yl)-2-cyanoacetamide]	243 to 246 °C	> 10 µM	> 10 µM	9.87 ± 0.265 µM			
C=CC(=O)Nc1ccc2ncc(NC(=O)Nc3ccc(F)c(Cl)c3)nc2c1 [Compound 7m, N-(3-(3-(3-chloro-4-fluorophenyl)ureido)quinoxalin-6-yl) acrylamide]	259 to 262 °C	> 10 µM	> 10 µM	> 10 µM			
C/C=C/C(=O)Nc1ccc2ncc(NC(=O)Nc3ccccc3)nc2c1 [Compound 7i, (E)-N-(3-(3-phenylureido)quinoxalin-6-yl)but-2-enamide]	273 to 276 °C	> 10 µM	5.58 ± 4.16 µM	> 10 µM			
C=CC(=O)Nc1ccc2ncc(NC(=O)Nc3ccc(Cl)c(C(F)(F)F)c3)nc2c1 [Compound 7a, N-(3-(3-(4-chloro-3-(trifluoromethyl)phenyl)ureido)quinoxalin-6-yl) acrylamide]	272 to 274 °C	> 10 µM	> 10 µM	> 10 µM			
N#CCC(=O)Nc1ccc2ncc(NC(=O)Nc3ccccc3)nc2c1 [Compound 7k, 2-cyano-N-(3-(3-phenylureido)quinoxalin-6-yl)acetamide]	238 to 241 °C	3.12 ± 0.787 µM	0.445 ± 0.105 µM	6.29 ± 2.79 µM			

Now those with a lower IC50 (EGFRwt), led by results:

melting point	IC50 (EGFRwt)	IC50 (EGFRL858R)	IC50 (EGFRL858R/T790M)	inhibitory activity on EGFRwt (in words) (EGFRwt; [1])	inhibitory activity on EGFRL858R (in words) (EGFRL858R; [1])	inhibitory activity on EGFRL858R/T790M (in words) (EGFRL858R/T790M; [1])	Structure (SMILES)
260 to 263 °C	0.179 ± 0.061 µM	2.1 ± 0.505 µM	9.83 ± 0.297 µM	weak activity	weak activity	no inhibitory activity	O=C(CCl)Nc1ccc2ncc(NC(=O)Nc3cccc(C(F)(F)F)c3)nc2c1 [Compound 7g, 2-chloro-N-(3-(3-(3-(trifluoromethyl)phenyl)ureido)quinoxalin-6-yl)acetamide]
249 to 252 °C	0.123 ± 0.134 µM	0.27 ± 0.202 µM	0.823 ± 0.613 µM				O=C(CCl)Nc1ccc2ncc(NC(=O)Nc3ccccc3)nc2c1 [Compound 7j, 2-chloro-N-(3-(3-phenylureido)quinoxalin-6-yl)acetamide]
